Laboratory results taken from patent US7737256B2, “Antibody against uPA/uPAR” (Fondazione Centro San Raffaele Del Monte Tabor, priority 2001, dated 2010).

What was measured:
THP-1 cells = experiment: chemotaxis of THP-1 cells (modified Boyden chambers); type: cell-based, human
Experimental: (§1) Chemotaxis assays were performed as described (Degryse, 1999) with modified Boyden chambers using filters (5 μm pore size, Corning) treated with collagen I (100 μg/ml) and fibronectin (10 μg/ml, Boehringer Mannheim). 20,000-40,000 cells in serum-free DMEM were added to the upper well while the chemoattractants were added to the lower well. When present, antibodies or desensitizing molecules were pre-incubated with the cells for one hour and were then added to both wells of Boyden chambers during the chemotaxis assay. Migration lasted for […] in the case of THP-1 cells and 4-6 hours for the HEK293 or HEK293/FPRL1 cells. After migration at 37° C., cells remaining on the upper surface of filters were scraped off, the filters were fixed in methanol and stained in a solution of 10% (w/v) crystal violet in 20% (v/v) methanol. The experiments were performed in triplicate and the results presented represent the mean ±SD of the number of cells counted in ten high power fields per filter and are representative of at least three experiments. Random cell migration, i. e. migration in the absence of chemoattractant, was given the arbitrary value of 100%.

HEK293 cells = experiment: chemotaxis of HEK293 cells; type: cell-based, human; details: untransfected HEK293, FIG. 10
Experimental: (§2) The THP-1 cells used in the present example have been previously described (Resnati, 1996). Human HEK293 cells were kindly donated by Dr. Hal Chapman and human HEK293/FPRL1 from Dr. J. M. Wang. […] HEK293/FPRL1 cells have been generated by transfection of FPRL1 cDNA in HEK293 cells (Murphy, 1996).
as §1, with “Random cell migration, i. e. migration in the absence of chemoattractant, was given the arbitrary value of 100%.” left out

HIV-1 in U1 cells = experiment: PMA-induced HIV-1 reactivation in U1 cells (RT activity); type: cell-based
Experimental: Cell Lines p U1 cells were stimulated at the density of 2×10^5 cells per ml in RPMI 1640 (Whittaker M. A. Bioproducts, Walkerville, Md.) containing 10% FCS. Cells were preincubated with uPA, uPAR, suPA, R2, R3, R4, R5 antibodies for 20 min at 37° C. prior to addition of stimuli. U1 parental cell line U937 was used as a control in the transfection experiments. U937 cells were purchased from ATCC and maintained in RPMI 1640 medium in the presence of FCS before and after infection with the X4 HIV-1LAI/IIIB. For infection, cells were seeded at 2×10^5 cells/ml in 96-well flat bottomed plates (Falcon, Becton-Dickinson Labware, Lincoln Park, N.J.) and infected with 1−2×10^7 virus particles diluted from a stock of pelleted virus (Advanced Biotechnology, Inc., Columbia, Md.). After infection, 2 h at 37° C., cells were washed and resuspended in RPMI 1640 medium.
Viral expression was monitored by determination of Mg^2+-dependent Reverse Trascriptase (RT) activity in culture supernatants (Poli, 1990). In particular, 5 microliters of supernatants was added to 25 microliters of a mixture containing poly(A), oligo(dT) (Pharmacia Fine Chemicals, Piscataway, N.J.), MgC12, and 32P-labeled deoxythymidine 5′-triphosphate (dTTP) (Amersham Corp., Arlington Heights, Ill.), and incubated for 2 h at 37°°C. 6 microliters of the mixture was spotted onto DE81 paper, air dried, washed five times in 2× SSC buffer, and two additional times in 95% ethanol. The paper was then dried and counted on a scintillation counter (LS 5000, Beckman Instruments, Inc., Fullerton, Calif.).
For all experiments, culture supernatants were collected every day for five days, in the case of cell line, or every three days for infection of U937 and primary cells. Reagents were replenished every time culture medium was changed. Data representative of one out of three independent experiments are shown. Results are presented as means of triplicate cultures, and the error bar show the standard deviation from the mean.

[1] = chemotaxis-promotion by uPAR peptides (data not shown); type: cell-based
[2] = biological target: FPRL1/LXA4R, seven trans-membrane G-protein-coupled receptor (human) (UniProt P25090); experiment: cell-based or functional assay
Chain of UniProt P25090 (P25090 whole entry): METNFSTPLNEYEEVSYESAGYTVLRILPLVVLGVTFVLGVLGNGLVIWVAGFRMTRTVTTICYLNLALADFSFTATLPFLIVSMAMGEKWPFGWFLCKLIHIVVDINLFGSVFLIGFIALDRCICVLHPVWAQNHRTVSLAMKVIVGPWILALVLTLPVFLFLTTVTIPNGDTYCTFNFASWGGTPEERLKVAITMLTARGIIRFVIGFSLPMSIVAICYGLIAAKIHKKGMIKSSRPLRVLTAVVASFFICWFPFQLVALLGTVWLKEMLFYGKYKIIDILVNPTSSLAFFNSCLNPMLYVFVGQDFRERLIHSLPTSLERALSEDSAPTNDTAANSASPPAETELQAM

[3] = system: Human peripheral blood monocytes; experiment: chemotaxis of peripheral blood monocytes; type: cell-based; details: fresh human monocytes, FIG. 13
Experimental: as §1
THP-1 cells have been described before (Resnati, 1996). […] The purity of the separated populations was determined by flow cytometry analyses with anti-CD14 monoclonal antibodies.

HEK293/FPRL1 cells = experiment: chemotaxis of HEK293 transfected with FPRL1/LXA4R; type: cell-based, human; details: FIG. 10
Experimental: as §2
as §1, with “Random cell migration, i. e. migration in the absence of chemoattractant, was given the arbitrary value of 100%.” left out

Q: Which “de-sensitization against D2D388-279 and ATF” value (THP-1 cells; 20 μM) does the source give for `CSCC[C@H](NC=O)C(=O)N[C@@H](CC(C)C)C(=O)N[C@@H](Cc1ccccc1)C(=O)O` [fMLP, formyl-methionyl-leucyl-phenylalanine] here?
A: de-sensitized

Q: And the “effect on MCP-1 chemotaxis (de-sensitization)” value (THP-1 cells; THP-1 cells, FIG. 9B)?
A: did not affect

Q: What about the IC50 (THP-1 cells; THP-1 cells, FIG. 9B, read-out: concentration inhibiting D2D388-279 chemotaxis by 50% (de-sensitization)) of the same compound?
A: 10 to 20 µM

Q: And the “effect on MCP-1 chemotaxis (de-sensitization)” value (THP-1 cells; THP-1 cells, very high concentrations (200 μM))?
A: marginally

Q: Which “chemotactic response of the cells” value (HEK293 cells) does the source give for “ATF: amino terminal fragment of uPA with full receptor-binding and no enzymatic activity” here?
A: do not respond

Q: And the “effect on PMA-induced HIV-1 expression” value (HIV-1 in U1 cells; PMA 10 nM, FIG. 2)?
A: fully reproduces the pro-uPA effect

Q: And the induction of chemotaxis (THP-1 cells; THP-1 cells)?
A: induce chemotaxis

Q: Which chemotaxis-promotion [1] does the source give for AVTYSRSRYLEC (listed as Homo sapiens) here?
A: active

Q: What about the “chemotaxis-promotion after cleavage with plasmin” value ([1]; peptide cleaved with plasmin, data not shown) of the same compound?
A: destroyed the activity

Q: With “D2D388-278, D2D3 fragment obtained by cleavage of suPAR with chymotrypsin (from UniProt Q03405 110-300) (receptor)” as the compound, how does the chemotaxis of HEK293 cells transfected with FPRL1/LXA4R [2] read?
A: 0.1 nM

Q: What does the source list for “D2D388-279: chymotrypsin-cleaved, soluble, purified form of uPAR endowed with potent chemotactic activity”?
A: induction of chemotaxis [3]: induce chemotaxis; chemotactic response of the cells (HEK293 cells): do not respond; chemotactic response of the cells (HEK293/FPRL1 cells): respond well; concentration of maximum chemotactic response (HEK293/FPRL1 cells): about 0.1 nM

Q: What does the source list for “MCP-1: monocytes chemotactic protein-1 [reference compound]”?
A: induction of chemotaxis [3]: induce chemotaxis; induction of chemotaxis (THP-1 cells; THP-1 cells): induce chemotaxis

Q: Which chemotaxis-promotion [1] does the source give for SRSRY (listed as Homo sapiens) here?
A: active

Q: With TGF-β [reference compound] as the compound, how does the “inhibition of PMA-induced HIV-1 replication/expression” value (HIV-1 in U1 cells; pro-uPA 10 nM, TGF-beta 5 ng/ml, alone or combined, FIG. 4C) read?
A: 60%

Q: For “suPAR: recombinant soluble uPAR which specifically binds pro-uPA”, which “effect on the inhibition of PMA-induced HIV-1 expression by pro-uPA” value (HIV-1 in U1 cells; with pro-uPA, FIG. 2D, FIG. 3) is on record?
A: blocked
